This note sets out measurements from patent US20080269202A1, “Novel 2,3-benzodiazepine derivatives and their use as antipsychotic agents” (Teva Pharmaceutical Industries Ltd., priority 2007, published 2008).

The test system of data set [1] is apomorphine-induced climbing. Briefly: apomorphine-induced climbing test in mice. It is filed as in vivo, CD1 mice. Conditions: for ED50: Mus musculus, read-out: Climbing ED50 (mg/kg ip.). As to the method:
(§1) Anti-apomorphine effects were investigated in the climbing test in mice mediated through the mesolimbic and stereotypy test in rats mediated through the nigrostriatal system. Conventional antipsychotics antagonize both apomorphine-induced behaviours, while known atypical antipsychotics are weaker against apomorphine stereotypy.
The climbing test was carried out according to Protais et al. (Protais, P. et al. Psychopharmacologia, 1976, 50, 1.) Stereotyped behavior was induced in food deprived (for 16 hours) male CD1 mice weighing 20-25 g body by apomorphine HCl (SIGMA) in a s.c. dose of 2 mg/kg. Mice were placed individually into cylinders having 12 cm diameter and consisting of vertical bars of 2 mm diameter where apomorphine treated animals tended to adopt a vertical position in contrary to vehicle treated controls. Test substances were applied ip. 30 min before apomorphine.
10 and 20 min after apomorphine treatment the climbing behaviour was evaluated by scores of 0-2. 10 mice/group were used. The scores of the two readings were summed individually, meaned and compared to the control. The ED50 values were calculated by Litchfield-Wilcoxon's method (Litchfield Jr. J. T., Wilcoxon, F. J. Pharmacol. Exp. Ther. 1949, 96, 49,).

The subject of the next data set is PCP-induced locomotion. Put plainly: PCP induced locomotor activity test (open field). Format: in vivo, mice. Conditions: all doses (3, 7, 14, 28, 40 mg/kg) by gavage, PCP 5 mg/kg, vs vehicle. As to the method:
The effects of compounds 121 and 183, administered orally, were also evaluated in the PCP induced locomotor activity test. Compound 121 was designated as “Compound A” and Compound 183 was designated as “Compound B” for purposes of this study. In general, the study aimed to test Compounds A and B for potential antipsychotic activity in PCP treated mice.
Compounds A & B were dissolved in 3% Tween: Compound A: 1, 3, 6, 10, and 15 mg/kg; Compound B: 3, 7, 14, 28, and 40 mg/kg; Compounds A+B were administered by gavage.
PCP (5 mg/kg) was dissolved in sterile injectable water.
The open field (“OF”) test assessed both anxiety and locomotor behavior. The open field chambers are Plexiglas square chambers (27.3×27.3×20.3 cm; Med Associates Inc., St Albans, Vt.) surrounded by infrared photobeams (16×16×16) to measure horizontal and vertical activity. The analysis was configured to divide the open field into a center and periphery zone. Distance traveled was measured from horizontal beam breaks as the mouse moved whereas rearing activity was measured from vertical beam breaks.
Mice were brought to the activity experimental room for at least 1 hr acclimation to the experimental room conditions prior to testing. […]
Data was analyzed to show baseline activity (activity during the 30 min prior to PCP injection) and PCP-induced activity (activity during the 60 min after PCP injection).

For data set [2], the system named is PCP-induced disruption of PPI. Briefly: PCP-induced disruption of pre-pulse inhibition (PPI). Conditions: for reversal of PCP-induced disruption of PPI: PCP 8 mg/kg, C57B1/6J mice.
Text: Male C57B1/6J mice from Jackson Laboratories (Bar Harbor, Me.) were used in this study. Mice were received at 6-weeks of age. Upon receipt, mice were assigned unique identification numbers (tail marked) and were group housed in OPTImice cages. All animals remained housed in groups of four during the remainder of the study. […] During the period of acclimation, mice were examined on a regular basis, handled, and weighed to assure adequate health and suitability. Mice were maintained on a 12/12 light/dark cycle with the light on at 6:00 a.m. The room temperature was maintained between 20 and 23° C. with a relative humidity maintained between 30% and 70%. Food and water were provided ad libitum for the duration of the study. In each test, animals were randomly assigned across treatment groups.
All compounds were injected i.p. at a dose volume of 10 ml/kg. […] Phenylcyclohexylpiperidine (PCP) (8 mg/kg) was dissolved in sterile water.
The acoustic startle measured an unconditioned reflex response to external auditory stimulation. […] Mice were placed in the PPI chambers (Med Associates) for a 5 min session of white noise (70 dB) habituation.
After the acclimation period the test session was automatically started. The session started with a habituation block of 6 presentations of the startle stimulus alone, followed by 10 PPI blocks of 6 different types of trials. Trial types are: null (no stimuli), startle (120 dB), startle plus prepulse (4, 8 and 12 dB over background noise i.e. 74, 78 or 82 dB) and prepulse alone (82 dB). Trial types were presented at random within each block.
Each trial started with a 50 ms null period during which baseline movements were recorded. There was a subsequent 20 ms period during which prepulse stimuli were presented and responses to the prepulse measured. After further 100 ms the startle stimuli were presented for 40 ms and responses recorded for 100 ms from startle onset. Responses were sampled every ms. The inter-trial interval was variable with an average of 15 s (range from 10 to 20 s). In startle alone trials the basic auditory startle was measured and in prepulse plus startle trials the amount of inhibition of the normal startle was determined and expressed as a percentage of the basic startle response (from startle alone trials), excluding the startle response of the first habituation block.
Data were analyzed by analysis of variance (ANOVA) followed by post-hoc comparisons with Fisher Tests when appropriate. An effect was considered significant if p<0.05. Data are represented as the mean and standard error to the mean.
Data set [3] relates to DOPA accumulation in eminentia mediana. Briefly: DOPA accumulation in eminentia mediana after NSD-1015. It is filed as in vivo, Sprague-Dawley rats. Conditions: for DOPA levels (pmol/mg prot): rat eminentia mediana, mean ± SEM. As to the method: Acute administration of atypical antipsychotics results in enhanced accumulation of dihydroxyphenylalanine (DOPA) in the […] after the inhibition of DOPA decarboxylase. In contrast, DOPA accumulation is not altered by the typical antipsychotics (Andersson, G, Albinsson, A, Pettersson, G, Arzneimittelforschung. 1990, 40, 237; Gudelsky, G. A., Meltzer, H. Y. Neuropsychopharmacology, 1989, 2, 45). The effect of the compound of Example 121 on DOPA-accumulation was measured by analyzing the levels of DOPA in […]. […] (EM), were dissected out from the brains on ice-cold plates and kept at -70° C. until they were assayed for DOPA by HPL-EC. Statistical analysis was carried out using one-way ANOVA followed by Duncan test.

Data set [4] deals with apomorphine-induced stereotyped behavior. Briefly: apomorphine-induced stereotypy. It is filed as in vivo, CD1 mice. Conditions: for ED50: Mus musculus, read-out: Stereotypy ED50 (mg/kg po.).
Text: as §1
Apomorphine-induced stereotypy was investigated according to Costall and Naylor (B. Costall and R. J. Naylor, Eur. J. Pharmacol. 1972, 18, 95) in male CD1 mice of 20-25 g body weight after 16 hours deprivation of food. 30 min before treatment mice were individually placed into small, transparent acrylic cages for habituation. Test substances were administered orally in a volume of 0.1 ml/10 g. 30 min later mice were treated with apomorphine HCl (SIGMA) in a subcutaneous dose of 2 mg/kg. […] The scores were summed individually, meaned and compared to the control group. The ED50 values were calculated by Litchfield-Wilcoxon's method (J. Pharmacol. Exp. Ther. 1949, 96, 49,).

A further data set relates to catalepsy. Put plainly: catalepsy test in rats. Conditions: for Catalapsy scores: dose 10 mg/kg ip, sum of 8 readings over 4 hours; for cataleptogenic potential: intraperitoneal, result in words. Format: in vivo, CDBR rats. The text has this: In order to investigate the potential side effect profile, the catalepsy test in rats has been carried out according to Costall and Naylor (Costall, B., Naylor, R. J. Arzneimittelforschung/Drug Res., 1973, 23, 674).
Catalepsy is defined as a failure to correct an externally imposed, unusual posture over a prolonged time. Neuroleptics which have direct inhibitory action on the nigrostriatal dopamine system induce catalepsy. It may be reflected by the Parkinson-like extrapyramidal symptoms seen clinically with administration of classical antipsychotics. The experiments were carried out in male CDBR rats weighing 300-400 g. The volume of administration was 0.25 ml/100 g body weight. The animals were starved for 16 hours before treatment, water was delivered ad libitum. After intraperitoneal administration of the test substances, the forepaws of the rats were placed on a horizontal stainless steel bar elevated to 10 cm high, while the hind paws remained on a metal plate. The semi-automatic 5-channel catalepsy meter measured the time spent in this unusual posture by an electronic stop-clock. The catalepsy time was scored from 0 to 5 according to the time spent in the unusual posture. […] Means of groups were calculated.

The subject of data set [5] is conditioned avoidance responses. Briefly: conditioned avoidance: pole jumping test in rats. Format: in vivo, Long-Evans rats. An excerpt:
For measuring the antipsychotic potential in a non-perturbed dopamine system the pole jumping assay was used (Cook, L., Catania, A. C. Fed. Proc. 1964, 23, 818.)
This method is an active avoidance learning test. Long-Evans rats, weighing 250-450 g, were used in the experiments. Rats are placed in a box (25×25×25 cm) on a grid floor in the center of which there is a pole. After a latency period, light is turned on for a given time then the floor is electrified to deliver an unpleasant footshock. Rats may learn to avoid the shock by jumping up to grasp the pole. As soon as the rat jumps up the light and shock are turned off. Each light-on period lasted for 15 s, shock time for 30 s with an intertrial interval of 15 s. 30 such trials per day were repeated during the learning period until animals reach a minimum of 80% avoidance rate. During the experimental sessions 20 trials/day were run. Test substances were administered ip. in a volume of 0.25 ml/100 g body weight. Significances were calculated by Student's t test.

In a further data set the test system is PCP-induced stereotypy. Briefly: PCP-induced stereotypy in mice. Format: in vivo, CD1 mice. Conditions: Mus musculus, read-out: PCP-stereotypy ED50 mg/kg po. An excerpt: (§2) Alterations in the mesocortical dopaminergic tract are thought to be responsible for the negative symptoms of schizophrenia (flattening of affect, poverty of speech, lack of volition and drive, loss of feeling, social withdrawal and decreased spontaneous movement). The best animal model of these symptoms is the behavioral changes induced by PCP (phencyclidine). The PCP-induced stereotypy and hypermotility was investigated in mice according to Ljungberg and Ungerstedt (Ljungberg, T., Ungerstedt, U. Pharmacol. Biochem. Behav., 1985, 23, 479,) and Jawitt (Jawitt, D. C. Amer. J. Psychiatry, 1991, 145, 1301). The stereotypy experiments were carried out in male CD1 mice weighing 20-25 g. The animals were starved for 16 hours before treatment without limitation of water availability. In the stereotypy studies, 30 min before treatment, mice were individually placed into small, transparent acrylic cages for habituation. Test substances were administered orally in a volume of 0.1 ml/10 g. 30 min later mice were treated with PCP with an intraperitoneal dose of 7 mg/kg. Stereotyped behavior was observed every 5th min for 60 min and scored from 0 to 4. The scores were summed individually, averaged and compared to the control group.
(§3) In both studies the ED50 values were calculated by the Litchfield-Wilcoxon's method (J. Pharmacol. Exp. Ther. 1949, 96, 49).

Data set [6] deals with PCP-induced hypermotility. Briefly: PCP-induced hypermotility (motor activity meter) in mice. To be noted: Mus musculus, read-out: PCP-hypermotility ED50 mg/kg po. Format: in vivo.
Text: as §2
The motor activity was measured in a 4-channel activity meter. The apparatus consisted of acrylic cages (40×40×32 cm) equipped with 16 pairs of infrared photocells. The photocells' beam, when broken, signaled a count, which was then recorded by a computer. A 5 mg/kg intraperitoneal dose of PCP was administered 5 min before the experiment. This dose of PCP induces 110-120% increase of the spontaneous motor activity. Test substances were administered orally 15 min before experiment, and mice were investigated individually in the experimental cages for 60 min. 10 mice/group were used. The total counts for each experimental group were compared to the vehicle treated control group.
as §3

[7] abbreviates: mice, ip. 30 min before apomorphine 2 mg/kg s.c.

Where two headings read alike, the source gives them in different places.

The melting point is the temperature of the solid-liquid transition. `COc1cc2c(cc1OC)C(c1ccc(NC(C)=O)cc1)=NN(c1nccs1)[C@H](C)C2` [Example 183] returned a melting point of 156 to 158 °C. Moreover, in [1] (setting [7]), the ED50 stood at 8.7 mg/kg. In the data set with PCP-induced locomotion, the “effect on PCP induced locomotion” value is “significantly decreased”. Also, in data set [2] (15 mg/kg i.p. (high dose)), the “sedation and lethargy in the mice” value is “caused sedation and lethargy”. For the same compound, the “reversal of PCP-induced disruption of PPI” value in data set [2] (5, 10, and 15 mg/kg i.p.) is “significantly reversed”. In addition, in data set [2] (all doses (1.5, 5, 10, 15 mg/kg) i.p.), the “reversal of PCP-induced disruption of PPI” value was “significantly reversed”.

On to `CN1CCN(C2=Nc3cc(Cl)ccc3Nc3ccccc32)CC1` [Clozapine, reference compound], for which the “DOPA levels (pmol/mg prot)” value in data set [3] (20 mg/kg ip) turned out to be 87.4 ± 9.5 pmol/mg prot. In addition, the ED50 in data set [1] amounted to 2.64 mg/kg; in data set [4] it was 22.9 mg/kg; in the data set on PCP-induced stereotypy, 3.76 mg/kg; in [6] it was 1.81 mg/kg. The Catalapsy scores in the data set with catalepsy is reported as 10:0.14. Moreover, the cataleptogenic potential result in the data set on catalepsy is on record as “lack cataleptogenic potential”. In addition, the “MED (mg/kg ip), minimal effective dose (stat. sign.)” value in data set [5] was 2 mg/kg.

`CN(C)CCCN1c2ccccc2Sc2ccc(Cl)cc21` [Chlorpromazine, reference compound]: the “DOPA levels (pmol/mg prot)” value in data set [3] (10 mg/kg ip, NSD-1015 90 min after treatment) turned out to be 56.4 ± 4.1 pmol/mg prot. For the same compound, the “effect on levels of DOPA in the EM of rats” value in data set [3] (result in words, vs saline) is on record as “had no effect”. In addition, the ED50 amounted to 1.2 mg/kg in data set [1] (setting [7]); 3.6 mg/kg in data set [4] (mice, po. 30 min before apomorphine 2 mg/kg s.c.); 1.86 mg/kg in [6] (mice, po. 15 min before experiment, PCP 5 mg/kg ip). In addition, the “inhibition of apomorphine-induced climbing” value in data set [1] (mice, result in words) is reported as “inhibited both behaviors”. In addition, the “inhibition of apomorphine-induced stereotyped behavior” value in data set [4] (mice, result in words) was “inhibited both behaviors”. Besides, in the data set with catalepsy, the Catalapsy scores was 10:8.7. For the same compound, the cataleptogenic potential entry with catalepsy is reported as “induces severe catalepsy”.
